Measurements from patent publication US11931365B2, “Use of PPAR-delta agonists in the treatment of disease” (Reneo Pharmaceuticals, Inc., priority 2022, dated 2024).

Assays:
[1] = system: patients with FAOD (CPT2, VLCAD, LCHAD, TFP); assay: Clinical trial for fatty acid oxidation disorder (FAOD); assay type: in vivo, human; conditions: for 12 MWT Mean Change / MFIS Total Mean Change / SF-36 Energy/Fatigue Mean Change / decrease in MFIS / increase in SF-36 energy/fatigue domain: Baseline to Week 12
Source text: Purpose: The purposes of this study were: to assess the safety and tolerability of 12 weeks treatment with Compound I, or a pharmaceutically acceptable salt or solvate thereof (e.g., Compound II), in patients with FAOD; to investigate pharmacokinetics of Compound I, or a pharmaceutically acceptable salt or solvate thereof (e.g., Compound II), in patients with FAOD treated with Compound I, or a pharmaceutically acceptable salt or solvate thereof (e.g., Compound II); to investigate the pharmacodynamics effects of Compound I, or a pharmaceutically acceptable salt or solvate thereof (e.g., Compound II), in patients with FAOD treated with Compound I, or a pharmaceutically acceptable salt or solvate thereof (e.g., Compound II).
Intervention: Patients were administered 10-200 mg of Compound I, or a pharmaceutically acceptable salt or solvate thereof (e.g., Compound II), per day as single agent or in combination. In one cohort, patients received 50 mg of Compound I, or a pharmaceutically acceptable salt or solvate thereof (e.g., Compound II), once daily for a total of 12 weeks. In another cohort, patients received 100 mg of Compound I, or a pharmaceutically acceptable salt or solvate thereof (e.g., Compound II), once daily for a total of 12 weeks.
Detailed Description: Patients were given Compound I, or a pharmaceutically acceptable salt or solvate thereof, orally once a day.
Inclusion Criteria: Confirmed diagnosis of one of the following: carnitine palmitoyl transferase II deficiency (CPT2), very long-chain Acyl-CoA dehydrogenase deficiency (VLCAD), long-chain 3-hydroxyacyl-CoA dehydrogenase deficiency (LCHAD), or trifunctional protein deficiency (TFP).
Primary Outcome Measures: Safety Endpoints included: number and severity of adverse events. Absolute values, changes from baseline at Week 12 and incidence of clinically significant changes in: laboratory safety tests; electrocardiograms; supine vital signs; evaluation of events of special interest (rhabdomyolysis) and clinically significant changes in laboratory parameters of muscle injury including total CPK, adolase, and cardiac specific troponin (cTn).
Pharmacodynamic Endpoints included: Absolute values and changes from baseline at Week 12 in: whole body fatty acid oxidation (^13CO2 production) and blood acylcarnitines (UHPLC-MS/MS method).
Secondary Outcome Measures: Assessment of the change from baseline following 12 weeks of treatment with Compound I, or a pharmaceutically acceptable salt or solvate thereof (e.g., Compound II), in: submaximal treadmill exercise tolerance; distance walked during a 12 minute walk test; 36-Item Short Form Survey (SF-36) total score and subscales (questions 3-12). Change from baseline in Fatigue Impact Scale score (every visit). Change from baseline in Brief Pain Inventory (short form) (every visit). Blood inflammatory cytokines (Multiplex Immunoassay for sE-Selectin; GM-CSF; ICAM-1/CD54; IFN alpha; IFN gamma; IL-1 alpha; IL-1 beta; IL-4; IL-6; IL-8; IL-10; IL-12p70; IL-13; IL-17A/CTLA-8; IP-10/CXCL10; MCP-1/CCL2; MIP-1alpha/CCL3; MIP-1 beta/CCL4; sP-Selectin; TNF alpha).

PPARα = PPARα (UniProt Q4PNY3); assay: PPAR receptor transactivation assay; assay type: cell-based; conditions: Monkey PPARα
VLCAD = VLCAD enzymatic activity in cultured fibroblasts from FAOD patients with VLCAD deficiency; assay type: cell-based, human; conditions: fibroblasts from symptomatic VLCAD deficient patients
[2] = system: human retinoid X receptor (hRXR); assay: Nuclear receptor activity
LXRβ = LXRβ (Homo sapiens, UniProt P55055); assay: Nuclear receptor activity
[3] = system: patients with primary mitochondrial myopathy; assay: Clinical trial for primary mitochondrial myopathy (PMM); assay type: in vivo, human
[4] = 24 patients, 50 or 100 mg/day, 12 weeks
[5] = 100 mg once daily, 12 weeks, listed as Compound 1

Sequence of LXRβ (P55055 whole entry): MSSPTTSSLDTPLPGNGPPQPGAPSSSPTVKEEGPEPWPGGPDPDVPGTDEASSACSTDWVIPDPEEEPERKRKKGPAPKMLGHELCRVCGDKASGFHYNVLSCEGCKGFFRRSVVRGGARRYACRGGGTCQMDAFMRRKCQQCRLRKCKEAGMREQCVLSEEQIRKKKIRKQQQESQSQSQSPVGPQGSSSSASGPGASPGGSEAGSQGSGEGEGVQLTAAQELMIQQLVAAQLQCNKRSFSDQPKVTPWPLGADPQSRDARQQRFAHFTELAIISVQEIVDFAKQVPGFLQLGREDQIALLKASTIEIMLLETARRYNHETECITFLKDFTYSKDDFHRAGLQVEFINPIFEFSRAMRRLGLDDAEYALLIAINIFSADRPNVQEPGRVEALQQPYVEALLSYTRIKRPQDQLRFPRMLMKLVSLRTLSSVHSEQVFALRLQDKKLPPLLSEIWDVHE

## Cc1cc(OC/C=C(/c2ccc(F)cc2)c2ccc(C#CCN3CCOCC3)cc2)ccc1OCC(=O)O [Compound I, (E)-2-(4-((3-(4-fluorophenyl)-3-(4-(3-morpholinoprop-1-yn-1-yl)phenyl)allyl)oxy)-2-methylphenoxy)acetic acid]
[1]; 50 mg once daily, 12 weeks
  distance walked during a 12-minute walk test: able to increase distance walked
  exhaled 13CO2: trend towards increases
  heart rate during the last ten minutes of exercise: decreases
[1]; [4]
  TEAEs reported as study drug related: 30%
  patients discontinuing treatment: 12.5%
  patients reporting rhabdomyolysis (most common TEAE): 16.7%
  patients reporting treatment-emergent adverse events (TEAEs): 75%
  severity of the majority of study drug related TEAEs: mild or moderate
[1]; CPT2 subgroup
  12 MWT Mean Change: 51.9 meters
  MFIS Total Mean Change: 1.0
  SF-36 Energy/Fatigue Mean Change: 0.8
[1]; FAOD patients
  tolerability: well tolerated
[1]; LCHAD subgroup
  12 MWT Mean Change: 73.7 meters
  MFIS Total Mean Change: −9.8
  SF-36 Energy/Fatigue Mean Change: 19.5
  decrease in MFIS: 9.8 point
  increase in SF-36 energy/fatigue domain: 19.5 point
[1]; TFP subgroup (n = 2)
  decrease in MFIS: 8.0 point
  increase in SF-36 energy/fatigue domain: 25.0 point
[1]; VLCAD subgroup
  12 MWT Mean Change: −36.7 meters
  MFIS Total Mean Change: 15.6
  SF-36 Energy/Fatigue Mean Change: −17.8
PPARα
  EC50: > 1000 nM
VLCAD
  VLCAD enzymatic activity: increased
[2]
  hRXR activity: did not show any
LXRβ
  activity on nuclear receptor LXRβ: did not show any
[3]; 100 mg once daily, 12 weeks
  Modified Fatigue Impact Scale scores: trends towards increases
  brief pain inventory (BPI) score: Decreases
  distance walked during a 12-minute walk test: able to increase the distance walked
  peak VO2: trends towards increases
[3]; [5]
  brief pain inventory (BPI) score: decreased
  distance walked during a 12-minute walk test: Improvements
[3]; PMM patients
  tolerability: well tolerated
